For the experiment, the target named is phosphorylated active hERK2 enzyme (Homo sapiens (Human), UniProt P28482). In words: Active Human ERK2 (hERK2) Activity Assay (IMAP-FP). It counts as biochemical. To be noted: Table 5, 0.5 nM hERK2, 30 μM ATP, 10 point titration, read-out: AERK2 IC50. How it is done:
Assays Active Human ERK2 (hERK2) Activity Assay:
Activated ERK2 activity was determined in an IMAP-FP assay (Molecular Devices). […] The final reaction in each well of 25 μL consists of 0.5 nM hERK2, 900 nM unlabeled peptide, 80 nM labeled-peptide, and 30 μM ATP. Phosphorylation reactions were allowed to proceed for 60 minutes and were immediately quenched by the addition of 60 μL IMAP detection beads (1:1000 dilutions) in IMAP binding buffer (Molecular Devices) with 24 mM NaCl. Plates were read on EnVision reader after 60 minutes binding equilibration using Fluorescence Polarization protocol (Perkin Elmer).

Data on 37 compounds can be found in US9233979B2, “Compounds that are ERK inhibitors” (Merck Sharp & Dohme Corp., priority 2012, dated 2016).

phosphorylated active hERK2 enzyme, sequence (P28482 whole entry): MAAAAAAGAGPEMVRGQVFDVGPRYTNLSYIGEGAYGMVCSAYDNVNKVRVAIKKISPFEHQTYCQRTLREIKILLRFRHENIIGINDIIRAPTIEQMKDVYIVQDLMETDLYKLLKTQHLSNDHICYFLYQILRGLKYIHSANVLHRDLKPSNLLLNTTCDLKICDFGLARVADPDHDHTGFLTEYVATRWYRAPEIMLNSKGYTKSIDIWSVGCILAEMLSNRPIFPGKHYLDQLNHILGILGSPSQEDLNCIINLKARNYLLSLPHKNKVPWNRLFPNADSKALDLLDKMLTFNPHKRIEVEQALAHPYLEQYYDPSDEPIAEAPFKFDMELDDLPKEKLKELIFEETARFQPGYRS

The term IC50 denotes the point on the concentration scale where inhibition reaches its midpoint. Take `CNc1n[nH]c2cc(NC(=O)N[C@H](C)c3ccc(F)cc3)ncc12` [Example 1, 1-[(1R)-1-(4-Fluorophenyl)ethyl]-3-[3-(methylamino)-1H-pyrazolo[4,3-c]pyridin-6-yl]urea]: the IC50 worked out at 7.85 nM.
Under `CCNc1n[nH]c2cc(NC(=O)N[C@H](C)c3ccccc3)ncc12` [Example 2, (R)-1-(3-(Ethylamino)-1H-pyrazolo[4,3-c]pyridin-6-yl)-3-(1-phenylethyl)urea] stands 1.13 nM; under `CNc1n[nH]c2cc(NC(=O)N[C@H](C)c3ccccc3)ncc12` [Example 3, 1-[3-(methylamino)-1H-pyrazolo[4,3-c]pyridin-6-yl]-3-[(1R)-1-phenylethyl]urea], 4.87 nM; under `CCNc1n[nH]c2cc(NC(=O)N[C@H](C)c3ccccn3)ncc12` [Example 4, 1-[3-(ethylamino)-1H-pyrazolo[4,3-c]pyridin-6-yl]-3-[(1R)-1-pyridin-2-ylethyl]urea], 19.5 nM.
As for `CCNc1n[nH]c2cc(NC(=O)N[C@H](C)c3ccc(F)cc3)ncc12` [Example 5, 1-[3-(ethylamino)-1H-pyrazolo[4,3-c]pyridin-6-yl]-3-[(1R)-1-(4-fluorophenyl)ethyl]urea], the figure is 1 nM.
On to `COC[C@@H](NC(=O)Nc1cc2[nH]nc(N3CC(OC)C3)c2cn1)c1ccccc1` [Example 6, 1-[3-(3-methoxyazetidin-1-yl)-1H-pyrazolo[4,3-c]pyridin-6-yl]-3-[(1S)-2-methoxy-1-phenylethyl]urea], for which the concentration for half-maximal inhibition (IC50) was 2300 nM.
On to `COCCNC(=O)Nc1cc2[nH]nc(N3CC(OC)C3)c2cn1` [Example 7, 1-[3-(3-methoxyazetidin-1-yl)-1H-pyrazolo[4,3-c]pyridin-6-yl]-3-(2-methoxyethyl)urea], for which the half-maximal inhibitory concentration (IC50) amounted to 342 nM.
Turning to `COCCNC(=O)Nc1cc2[nH]nc(N3CCC3)c2cn1` [Example 8, 1-(3-azetidin-1-yl-1H-pyrazolo[4,3-c]pyridin-6-yl)-3-(2-methoxyethyl)urea], the 50% inhibitory concentration (IC50) is 255 nM.
Consider `COCCNC(=O)Nc1cc2[nH]nc(N3CCCC3)c2cn1` [Example 9, 1-(2-methoxyethyl)-3-(3-pyrrolidin-1-yl-1H-pyrazolo[4,3-c]pyridin-6-yl)urea], for which the IC50 came to 105 nM.
For the compound `COCCN(C)c1n[nH]c2cc(NC(=O)N[C@H](C)c3ccccc3)ncc12` [Example 10, 1-{3-[(2-methoxyethyl)(methyl)amino]-1H-pyrazolo[4,3-c]pyridin-6-yl}-3-[(1R)-1-phenylethyl]urea], the concentration for half-maximal inhibition (IC50) is 42.1 nM.
As for `COC[C@@H](C)NC(=O)Nc1cc2[nH]nc(N3CCOCC3)c2cn1` [Example 11, 1-[(1R)-2-methoxy-1-methylethyl]-3-(3-morpholin-4-yl-1H-pyrazolo[4,3-c]pyridin-6-yl)urea], the figure is 30 nM; as for `COC[C@H](C)NC(=O)Nc1cc2[nH]nc(N3CCOCC3)c2cn1` [Example 12, 1-[(1S)-2-methoxy-1-methylethyl]-3-(3-morpholin-4-yl-1H-pyrazolo[4,3-c]pyridin-6-yl)urea], 51.6 nM.
As to `C[C@@H](NC(=O)Nc1cc2[nH]nc(N3CCN(C)CC3)c2cn1)c1ccccc1` [Example 13, 1-[3-(4-methylpiperazin-1-yl)-1H-pyrazolo[4,3-c]pyridin-6-yl]-3-[(1R)-1-phenylethyl]urea], the IC50 is 28 nM.
Under `COC[C@@H](NC(=O)Nc1cc2[nH]nc(N3CCN(C)CC3)c2cn1)c1ccccc1` [Example 14, 1-[(1S)-2-methoxy-1-phenylethyl]-3-[3-(4-methylpiperazin-1-yl)-1H-pyrazolo[4,3-c]pyridin-6-yl]urea] stands 21.8 nM; under `C[C@@H](NC(=O)Nc1cc2[nH]nc(N(C)C)c2cn1)c1ccc(F)cc1` [Example 15, 1-[3-(dimethylamino)-1H-pyrazolo[4,3-c]pyridin-6-yl]-3-[(1R)-1-(4-fluorophenyl)ethyl]urea], 17.3 nM.
Under `CO[C@H](C)CNC(=O)Nc1cc2[nH]nc(N3CCOCC3)c2cn1` [Example 16, 1-[(2R)-2-methoxypropyl]-3-(3-morpholin-4-yl-1H-pyrazolo[4,3-c]pyridin-6-yl)urea] stands 20.6 nM.
As for `CO[C@@H](C)CNC(=O)Nc1cc2[nH]nc(N3CCOCC3)c2cn1` [Example 17, 1-[(2S)-2-methoxypropyl]-3-(3-morpholin-4-yl-1H-pyrazolo[4,3-c]pyridin-6-yl)urea], the figure is 11.8 nM.
For `C[C@@H](NC(=O)Nc1cc2[nH]nc(N(C)C)c2cn1)c1ccccc1` [Example 19, 1-[3-(dimethylamino)-1H-pyrazolo[4,3-c]pyridin-6-yl]-3-[(1R)-1-phenylethyl]urea], the IC50 came to 13.8 nM.
As for `COCCNC(=O)Nc1cc2[nH]nc(N3CCOCC3)c2cn1` [Example 20, 1-(2-methoxyethyl)-3-(3-morpholin-4-yl-1H-pyrazolo[4,3-c]pyridin-6-yl)urea], the figure is 13.6 nM; as for `CCN(CC)c1n[nH]c2cc(NC(=O)N[C@H](COC)c3ccccc3)ncc12` [Example 21, 1-[3-(diethylamino)-1H-pyrazolo[4,3-c]pyridin-6-yl]-3-[(1S)-2-methoxy-1-phenylethyl]urea], 10.4 nM; as for `COC1CN(c2n[nH]c3cc(NC(=O)N[C@H](C)c4ccccc4)ncc23)C1` [Example 22, 1-[3-(3-methoxyazetidin-1-yl)-1H-pyrazolo[4,3-c]pyridin-6-yl]-3-[(1R)-1-phenylethyl]urea], 8.75 nM.
On to `COC[C@@H](NC(=O)Nc1cc2[nH]nc(N3CCC3)c2cn1)c1ccccc1` [Example 24, 1-(3-azetidin-1-yl-1H-pyrazolo[4,3-c]pyridin-6-yl)-3-[(1S)-2-methoxy-1-phenylethyl]urea], for which the IC50 came out at 4.8 nM.
In the case of `C[C@@H](NC(=O)Nc1cc2[nH]nc(N3CCC3)c2cn1)c1ccccc1` [Example 25, 1-(3-azetidin-1-yl-1H-pyrazolo[4,3-c]pyridin-6-yl)-3-[(1R)-1-phenylethyl]urea], the half-maximal inhibitory concentration (IC50) is 4.78 nM.
On to `COC[C@@H](NC(=O)Nc1cc2[nH]nc(N3CCOCC3C)c2cn1)c1ccccc1` (stereo partly drawn) [Example 27, 1-[(1S)-2-methoxy-1-phenylethyl]-3-[3-(3-methylmorpholin-4-yl)-1H-pyrazolo[4,3-c]pyridin-6-yl]urea], for which the IC50 was 1.2 nM.
As to `COC[C@@H](NC(=O)Nc1cc2[nH]nc(N3CCCC3)c2cn1)c1ccccc1` [Example 28, 1-[(1S)-2-methoxy-1-phenylethyl]-3-(3-pyrrolidin-1-yl-1H-pyrazolo[4,3-c]pyridin-6-yl)urea], the IC50 amounted to 1 nM.
Consider `C[C@@H](NC(=O)Nc1cc2[nH]nc(N3CCCC3)c2cn1)c1ccccc1` [Example 29, 1-[(1R)-1-phenylethyl]-3-(3-pyrrolidin-1-yl-1H-pyrazolo[4,3-c]pyridin-6-yl)urea], for which the IC50 is 0.82 nM.
Consider `COC[C@@H](NC(=O)Nc1cc2[nH]nc(N3CCOCC3)c2cn1)c1ccccc1` [Example 30, 1-[(1S)-2-methoxy-1-phenylethyl]-3-(3-morpholin-4-yl-1H-pyrazolo[4,3-c]pyridin-6-yl)urea], for which the IC50 came out at 0.4 nM.
Under `C[C@@H](NC(=O)Nc1cc2[nH]nc(N3CCOCC3)c2cn1)c1ccc(F)cc1` [Example 31, 1-[(1R)-1-(4-fluorophenyl)ethyl]-3-(3-morpholin-4-yl-1H-pyrazolo[4,3-c]pyridin-6-yl)urea] stands 0.4 nM.
As to `C[C@@H](NC(=O)Nc1cc2[nH]nc(N3CCOCC3)c2cn1)c1ccccc1` [Example 32, 1-(3-morpholin-4-yl-1H-pyrazolo[4,3-c]pyridin-6-yl)-3-[(1R)-1-phenylethyl]urea], the half-inhibitory concentration (IC50) was found to be 0.37 nM.
Regarding `CCNc1n[nH]c2cc(NC(=O)N[C@H](C)c3ccccc3)nc(C)c12` [Example 38, 1-[3-(ethylamino)-4-methyl-1H-pyrazolo[4,3-c]pyridin-6-yl]-3-[(1R)-1-phenylethyl]urea], the IC50 was 13.9 nM.
Under `CN1C[C@H](NC(=O)Nc2cc3[nH]nc(N4CCOCC4)c3cn2)[C@@H](c2ccccc2)C1` [Example 41, 1-[(3R,4S)-1-Methyl-4-phenylpyrrolidin-3-yl]-3-(3-morpholin-4-yl-1H-pyrazolo[4,3-c]pyridin-6-yl)urea] stands 20.2 nM; under `CN1C[C@@H](NC(=O)Nc2cc3[nH]nc(N4CCOCC4)c3cn2)[C@H](c2ccccc2)C1` [Example 42, 1-[(3S,4R)-1-methyl-4-phenylpyrrolidin-3-yl]-3-(3-morpholin-4-yl-1H-pyrazolo[4,3-c]pyridin-6-yl)urea], 0.2 nM; under `C[C@@H](NC(=O)Nc1cc2[nH]nc(N)c2cn1)c1ccc(F)cc1` [Example 44, 1-(3-amino-1H-pyrazolo[4,3-c]pyridin-6-yl)-3-[(1R)-1-(4-fluorophenyl)ethyl]urea], 2.81 nM.
For the compound `CC(=O)Nc1n[nH]c2cc(NC(=O)N[C@H](C)c3ccccc3)ncc12` [Example 47, (R)—N-(6-(3-(1-Phenylethyl)ureido)-1H-pyrazolo[4,3-c]pyridin-3-yl)acetamide], the concentration for half-maximal inhibition (IC50) was determined as 0.66 nM.
Consider `CCS(=O)(=O)Nc1n[nH]c2cc(NC(=O)N[C@H](C)c3ccccc3)ncc12` [Example 50, (R)—N-(6-(3-(1-Phenylethyl)ureido)-1H-pyrazolo[4,3-c]pyridin-3-yl)ethanesulfonamide], for which the 50% inhibitory concentration (IC50) was determined as 321 nM.
Under `C[C@@H](NC(=O)Nc1cc2[nH]nc(NS(C)(=O)=O)c2cn1)c1ccccc1` [Example 51, N-[6-({[(1R)-1-phenylethyl]carbamoyl}amino)-1H-pyrazolo[4,3-c]pyridin-3-yl]methanesulfonamide] stands 652 nM.
Take `C[C@@H](NC(=O)Nc1cc2[nH]nc(NS(=O)(=O)C3CC3)c2cn1)c1ccccc1` [Example 52, N-[6-({[(1R)-1-phenylethyl]carbamoyl}amino)-1H-pyrazolo[4,3-c]pyridin-3-yl]cyclopropanesulfonamide]: the IC50 was 914 nM.
